How the values were obtained:
[1] = Profiling of absorbed constituents and metabolites in mice plasma after oral administration of RA (UFLC-DAD-Q-TOF-MS/MS); conditions: oral RA extract 6 g/kg BW; cyclophosphamide-induced immunosuppressed Balb/c mice; plasma sampled 0.25-36 h; '-' = not detected
Procedure: The peaks that appeared at the same position in the total ion chromatograms of both the dosed mice bio-samples and the RA extract, but not in the chromatograms of the controlled mice bio-samples, were regarded as absorbed constituents [22].
Following randomization into study groups, mice (6/group/male) received intraperitoneal injection once daily of cyclophosphamide (i.p. 80 mg/kg BW) for 6 days. Additionally, the control group was injected intraperitoneally with sterile physiological saline. […] Plasma was harvested by centrifugation at 3000× g for 10 min and then kept frozen at −70 °C until analysis.
After being vortexed for 1 min, the sample was centrifuged at 13,000× g at 4 °C for 30 min. The supernate was transferred into a fresh tube and evaporated with nitrogen. Then, the residue was dissolved in a 60-μL mobile phase with vortex mixing for 3 min and centrifuged at 13,000× g for 30 min. Finally, 10 μL of the supernatant were injected into the UFLC/DAD/Q-TOF-MS/MS system.
The multiple constituents in RA and the absorbed compounds in mice plasma were identified by the ultra-fast liquid chromatography/diode-array detector/quadrupole time-of-flight tandem mass spectrometry (UFLC/DAD/Q-TOF-MS/MS) method.

[2] = Pharmacokinetics of five main constituents in immunosuppressive mice plasma after oral administration of RA (HPLC-MS/MS); type: in vivo, Balb/c mice; conditions: immunosuppressive Balb/c mice plasma; for AUC(0-t) / AUC(0-inf) / Cmax / half-life / Tmax: male, mouse, oral RA extract 6 g/kg BW; for AUC(0-t): 0-36 h, read-out: AUC(0–t); for AUC(0-inf): read-out: AUC(0–∞); for Cmax: read-out: Cmax; for half-life: read-out: t1/2z (converted); for Tmax: read-out: tmax
Procedure: The maximum plasma concentration (Cmax) and the time of maximum plasma concentration (tmax) were obtained from the observed data (Table 3). The plasma concentration-time profiles for calycosin-7-O-glucoside, ononin, calycosin, formononetin and astragaloside IV are shown in Figure 4.
To quantify calycosin-7-O-glucoside, ononin, calycosin, formononetin and astragaloside IV in mice, a 10-μL IS solution was added into 50 μL of plasma and mixed for 30 s. Then, 1 mL ethyl acetate was added to the tube and vortexed for 3 min. […] Ten microliters of the supernatant were injected into the HPLC-MS/MS system.
The quantification was performed by an LC-MS/MS system, which consisted of an Agilent 1200 HPLC series system and an Agilent 6410 triple quadrupole mass spectrometer (Agilent Technol., Santa Clara, CA, USA) equipped with an electrospray ionization source. Samples were separated by a rapid resolution HT C18 column (2.1 mm × 50 mm, 1.8 μm, Agilent Technol.) at 30 °C. The mobile phase consisted of 0.1 formic acid both in methanol (A) and water (B) using a gradient elution program of 25%–50% A (0–5 min) and 50%–90% (5–10 min). The flow rate was 0.2 mL/min, and the injection volume was 10 μL. Detection was performed in the positive ion mode using multiple reaction monitoring (MRM) of the m/z 447.1/285.0 for calycosin-7-O-glucoside, m/z 431.1/269.0 for ononin, m/z 285.0/137.0 for calycosin, m/z 269.0/213.0 for formononetin, m/z 807.4/627.3 for astragaloside IV and m/z 271.1/151.0 for naringenin.

Molecule	Source: Dosed Plasma (time points at which the compound was detected) [1] [h]	also measured
NC(=O)C[C@H](N)C(=O)O (single isomer, unassigned) [Peak 2, Asparagine]	1 to 36	
CC(C)C[C@H](N)C(=O)O (single isomer, unassigned) [Peak 9, Leucine]	0.25 to 36	
Nc1ncnc2c1ncn2[C@@H]1O[C@H](CO)[C@@H](O)[C@H]1O (single isomer, unassigned) [Peak 10, Adenine nucleoside]	0.25 to 36	
N[C@@H](Cc1ccccc1)C(=O)O (single isomer, unassigned) [Peak 11, Phenylalanine]	0.25 to 36	
COc1cc(O[C@H]2O[C@H](CO)[C@H](O)[C@H](O)[C@H]2O[C@H]2OC[C@@](O)(CO)[C@H]2O)ccc1O (single isomer, unassigned) [Peak 13, Markhamioside F]	0.25 to 8	
N[C@@H](Cc1c[nH]c2ccccc12)C(=O)O (single isomer, unassigned) [Peak 14, Tryptophan]	0.25 to 36	
N[C@@H](Cc1ccc(O)cc1)C(=O)O (single isomer, unassigned) [Peak 16, Tyrosine]	0.25 to 36	
COc1cc(O)c2c(=O)c(O[C@@H]3O[C@H](CO)[C@@H](O)[C@H](O)[C@H]3O)c(-c3ccc(O[C@@H]4O[C@H](CO)[C@@H](O)[C@H](O)[C@H]4O)cc3)oc2c1 (single isomer, unassigned) [Peak 18, Rhamnocitrin 3,4'-di-O-glucoside]	0.25 to 6	
COc1cc(/C=C/CO)cc(OC)c1O[C@@H]1O[C@H](CO)[C@@H](O)[C@H](O)[C@H]1O (single isomer, unassigned) [Peak 24, Syringin]	0.25 to 36	
CC(C)(O)[C@@H]1CC[C@](C)([C@H]2[C@@H](O)C[C@@]3(C)[C@@H]4C[C@H](O[C@@H]5O[C@H](CO)[C@@H](O)[C@H](O)[C@H]5O)[C@H]5C(C)(C)[C@@H](O[C@@H]6OC[C@@H](O)[C@H](O)[C@H]6O[C@@H]6O[C@H](CO)[C@@H](O)[C@H](O)[C@H]6O)CC[C@@]56C[C@@]46CC[C@]23C)O1 (single isomer, unassigned; peak 41) [Peak 41, Astragaloside VI]	0.25 to 24	
C[C@@H]1O[C@@H](O[C@H]2[C@H](O[C@H]3[C@H](O[C@H]4CC[C@@]5(C)[C@@H](CC[C@]6(C)[C@@H]5CC=C5[C@@H]7CC(C)(C)C[C@@H](O)[C@]7(C)CC[C@]56C)[C@@]4(C)CO)O[C@H](C(=O)O)[C@@H](O)[C@@H]3O)OC[C@@H](O)[C@@H]2O)[C@H](O)[C@H](O)[C@H]1O (single isomer, unassigned; peak 48) [Peak 48, Astragaloside VIII]	0.25 to 24	
C[N+](C)(C)CCO [Peak 4, Choline]	0.25 to 36	
NCCCC(=O)O [Peak 5, γ-Aminobutyric acid]	0.25 to 36	
O=C(O)c1ccc(O)c(O)c1 [Peak 12, Protocatechuic acid]	0.25 to 36	
COc1cc(C(=O)O)cc(OC)c1O [Peak 20, Syringic acid]	0.25 to 36	
COc1cc(C=O)cc(OC)c1O [Peak 23, Syringaldehyde]	0.25 to 6	
COc1cc(/C=C/C(=O)O)ccc1O [Peak 25, Ferulic acid]	0.25 to 36	

Now from value to molecule, other results behind:

Source: Dosed Plasma (time points at which the compound was detected) [1] [h]	Molecule	also measured
0.25 to 8	COc1ccc(-c2coc3cc(O[C@@H]4O[C@H](CO)[C@@H](O)[C@H](O)[C@H]4O)cc(O)c3c2=O)cc1O (single isomer, unassigned) [Peak 26, Pratensein-7-O-glucoside]	
0.25 to 24	COc1ccc(-c2coc3cc(O[C@@H]4O[C@H](CO)[C@@H](O)[C@H](O)[C@H]4O)ccc3c2=O)cc1O (single isomer, unassigned) [Peak 29, Calycosin-7-O-glucoside]	AUC(0-t) [2]: 108 ± 37.1 ng·h/mL; AUC(0-inf) [2]: 127 ± 40.3 ng·h/mL; Cmax [2]: 33.4 ng/mL; half-life [2]: 2.61 ± 0.67 h; Tmax [2]: 1.5 h
0.25 to 36	O=c1cc(-c2ccc(O)cc2)oc2cc(O[C@@H]3O[C@H](CO)[C@@H](O)[C@H](O)[C@H]3O)cc(O)c12 (single isomer, unassigned) [Peak 30, Cosmosiin]	
0.25 to 24	COc1ccc(-c2coc3cc(O[C@@H]4O[C@H](CO)[C@@H](O)[C@H](O)[C@H]4O)ccc3c2=O)cc1 (single isomer, unassigned) [Peak 33, Ononin]	double-peak phenomenon, time of second peak ([2]; after oral administration of RA): 4 h; AUC(0-t) [2]: 228 ± 59.7 ng·h/mL; AUC(0-inf) [2]: 239 ± 47.4 ng·h/mL; Cmax [2]: 51.4 ng/mL; half-life [2]: 1.96 ± 0.34 h; Tmax [2]: 1.5 h
0.25 to 12	COc1ccc2c(c1OC)OC1c3ccc(O[C@@H]4O[C@H](CO)[C@@H](O)[C@H](O)[C@H]4O)cc3OCC21 (single isomer, unassigned) [Peak 34, 9,10-dimethoxypterocarpan-3-O-glucoside]	
0.25 to 36	CCCCC=CC=CC(=O)O (single isomer, unassigned) [Peak 35, 2,4-Nonadienic acid]	
0.25 to 8	COc1ccc(-c2coc3cc(O[C@@H]4O[C@H](COC(C)=O)[C@@H](O)[C@H](O)[C@H]4O)ccc3c2=O)cc1 (single isomer, unassigned) [Peak 38, 6'-O-acetyl ononin]	
3	CC(CCC(O)C(C)(C)O)C1C(O)CC2(C)C3CC(OC4OC(CO)C(O)C(O)C4O)C4C(C)(C)C(OC5OCC(O)C(O)C5O)CCC45CC35CCC12C (single isomer, unassigned) [Peak 43, Cyclocanthoside E]	
0.25 to 24	C[C@@H]1O[C@@H](O[C@H]2[C@H](O[C@H]3[C@H](O[C@H]4CC[C@@]5(C)[C@@H](CC[C@]6(C)[C@@H]5CC=C5[C@@H]7CC(C)(C)C[C@@H](O)[C@]7(C)CC[C@]56C)[C@@]4(C)CO)O[C@H](C(=O)O)[C@@H](O)[C@@H]3O)O[C@H](CO)[C@H](O)[C@@H]2O)[C@H](O)[C@H](O)[C@H]1O (single isomer, unassigned) [Peak 47, Soyasaponin I]	
0.25 to 24	CC(C)(O[C@@H]1O[C@H](CO)[C@@H](O)[C@H](O)[C@H]1O)[C@@H]1CC[C@](C)([C@H]2[C@@H](O)C[C@@]3(C)[C@@H]4C[C@H](O)[C@H]5C(C)(C)[C@@H](O[C@@H]6OC[C@@H](O)[C@H](O)[C@H]6O[C@@H]6O[C@H](CO)[C@@H](O)[C@H](O)[C@H]6O)CC[C@@]56C[C@@]46CC[C@]23C)O1 (single isomer, unassigned; peak 40) [Peak 40, Astragaloside V]	
0.25 to 36	COc1ccc(/C=C/C(=O)O)cc1O [Peak 27, Isoferulic acid]	
0.25 to 36	O=C(O)CCCCCCCC(=O)O [Peak 32, Azelaic acid]	
0.25 to 8	COc1ccc(-c2coc3cc(OC4OC(C(=O)O)C(O)C(O)C4O)ccc3c2=O)cc1 (stereo not drawn) [Peak M3, Glucuronidated formononetin]	
0.25 to 8	Sulfated calycosin [Peak M1]	
0.25 to 8	Sulfated formononetin [Peak M6]	
0.25 to 8	Sulfated isomucronulatol [Peak M5]	

Reference: publication PMC4394464, “Identification and Pharmacokinetics of Multiple Potential Bioactive Constituents after Oral Administration of Radix Astragali on Cyclophosphamide-Induced Immunosuppression in Balb/c Mice” (International Journal of Molecular Sciences, 2015)
